From patent US20250326733A1, “A NEW ROUTE FOR SY[…] CHIRAL CANNABINOIDS FROM COUMARINS” (University of Florida Research Foundation, Inc., priority 2021, published 2025)
Entries after “also recorded” stand apart in the source; their conditions may differ.

How the values were obtained:
hCB2R [1] = biological target: T1, hCB2R (Homo sapiens, UniProt P34972); test: Stimulation of [35S]GTPγS binding (native G protein activation); assay type: biochemical
hCB2R [2] = biological target: T1, hCB2R; test: Functional activity (agonism), TRUPATH assay of Gαiβ3γ9 protein activation; assay type: cell-based; settings: for Emax: mean ± SEM, n >= 3
hCB1R [3] = biological target: T2, hCB1R (Homo sapiens, UniProt P21554); test: as above; assay type: cell-based; settings: for Emax: mean ± SEM, n >= 3, NA = no observable agonism at concentrations up to 31.6 μM
T2 sequence (P21554 whole entry): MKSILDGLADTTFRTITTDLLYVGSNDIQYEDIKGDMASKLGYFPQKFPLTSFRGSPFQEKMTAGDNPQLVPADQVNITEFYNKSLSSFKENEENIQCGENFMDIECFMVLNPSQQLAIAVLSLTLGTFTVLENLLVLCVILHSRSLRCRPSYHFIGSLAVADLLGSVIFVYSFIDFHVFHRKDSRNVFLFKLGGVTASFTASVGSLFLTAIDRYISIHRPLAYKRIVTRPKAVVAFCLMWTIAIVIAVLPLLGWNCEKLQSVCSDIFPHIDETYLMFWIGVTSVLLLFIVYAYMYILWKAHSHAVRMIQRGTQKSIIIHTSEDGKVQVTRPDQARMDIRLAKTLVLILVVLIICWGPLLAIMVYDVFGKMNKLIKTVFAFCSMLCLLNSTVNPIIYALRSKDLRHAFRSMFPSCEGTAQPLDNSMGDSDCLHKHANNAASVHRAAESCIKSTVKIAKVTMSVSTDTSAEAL

hCB2R [4] = biological target: T1, hCB2R; test: Binding affinity at human cannabinoid receptor 2; settings: for CB1/CB2: ratio of Ki hCB1R / hCB2R
hCB1R [5] = biological target: T2, hCB1R; test: Binding affinity at human cannabinoid receptor 1

T1 sequence (P34972 whole entry): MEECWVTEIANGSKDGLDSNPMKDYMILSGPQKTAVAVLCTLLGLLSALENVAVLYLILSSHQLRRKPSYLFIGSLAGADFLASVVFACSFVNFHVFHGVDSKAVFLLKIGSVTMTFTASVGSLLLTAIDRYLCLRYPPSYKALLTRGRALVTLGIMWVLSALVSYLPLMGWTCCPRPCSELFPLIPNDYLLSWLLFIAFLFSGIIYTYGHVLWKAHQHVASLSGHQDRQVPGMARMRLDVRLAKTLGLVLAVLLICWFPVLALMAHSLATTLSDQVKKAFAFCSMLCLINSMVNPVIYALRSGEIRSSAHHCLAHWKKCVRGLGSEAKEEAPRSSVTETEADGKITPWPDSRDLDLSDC

Row | SMILES | EC50 (hCB2R [2]) | Emax (hCB2R [2]; hCB2R) | EC50 (hCB1R [3]) | Emax (hCB1R [3]; hCB1R) | Ki (hCB2R [4]) | CB1/CB2 (hCB2R [4]) | Ki (hCB1R [5]; Ki (nM), hCB1R) | other results
1 | CCCCCCC(C)(C)c1cc(OC(C)=O)c2c(c1)OC(C)(C)c1ccc(C)c(COC(C)=O)c1-2 [axCBN-4] | 178 nM | 0.120 ± 0.0294 | 7080 nM | 0.175 ± 0.0832 | 195 nM | 6.2 | 1200 nM | agonist activity (in words) (hCB2R [1]; hCB2R): maintained agonist activity; selectivity for hCB2R over hCB1R (hCB2R [4]): 6.2 fold
2 | C=C(C)[C@@H]1CCC(C)=C[C@H]1c1c(O)cc(CCCCC)cc1O [CBD, cannabidiol, reference compound] | – | – | – | – | – | – | – | agonism / efficacy (in words) (hCB2R [2]; hCB2R): no efficacy; agonism / efficacy (in words) (hCB1R [3]; hCB1R): no efficacy
3 | CCCCCCC(C)(C)c1cc(O)c2c(c1)OC(C)(C)c1ccc(C)c(CO)c1-2 [axCBN-3] | 3.47 nM | 0.120 ± 0.0296 | 26.3 nM | 0.0807 ± 0.0141 | 0.933 nM | 0.7 | 0.661 nM | potency to stimulate [35S]GTPγS binding, hCB2R versus hCB1R (hCB2R [1]; greater at hCB2R than at hCB1R): 2 fold; efficacy in [35S]GTPγS binding (in words) (hCB2R [1]; relative to CBN): increased efficacy over CBN; affinity, fold higher than CBN (hCB2R [4]; hCB2R): ~134 fold; affinity (in words) (hCB2R [4]; hCB2R / CB2 receptor): sub-nanomolar; also recorded: picomolar; affinity, fold higher than CBN (hCB1R [5]; hCB1R): approximately 360 fold; affinity (in words) (hCB1R [5]; hCB1R / CB1 receptor): sub-nanomolar; also recorded: picomolar; affinity, fold higher than CBN-DMH reported by Rhee, et al. (hCB1R [5]; hCB1R and hCB2R, comparator value from literature): 5-10 fold; pKiLo (low affinity site) (hCB1R [5]; hCB1R, two site binding model, FIG. 5): 7.3; Ki (hCB1R [5]; pKiHi (high affinity site), hCB1R, two site binding model, FIG. 5): 0.398 nM
4 | CCCCCc1cc(O)c2c(c1)OC(C)(C)c1ccc(C)cc1-2 [CBN, cannabinol, reference compound] | – | – | – | – | 138 nM | 1.7 | 240 nM | Ki (hCB1R [5]; pKi, hCB1R, one site, FIG. 5): 631 nM
